These results are taken from patent publication US10538512B2, “Aminoacylindazole immunomodulators for treatment of autoimmune diseases” (The Rockefeller University, priority 2016, dated 2020).

The term IC50 denotes the concentration needed to halve the response being measured. A low value points to higher potency.

Where only a bound is given, the exact number is not on record here.

The target of one assay is T1, Human alpha-thrombin (Homo sapiens, UniProt P00734).
T1 construct: Human alpha-thrombin (Enzyme Research Labs); purchased Enzyme Research Labs
In words: Thrombin counterscreen for selectivity, fluorogenic substrate assay. The class given is biochemical. The conditions noted are these: Human alpha-thrombin 12.5 nM, Boc-Val-Pro-Arg-AMC 20 μM, 10 min preincubation. In outline:
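Compounds, about 1–100 μM, preincubated 10 min at room temperature with enzyme, then Boc-Val-Pro-Arg-AMC added at 20 μM final.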
A general note: Counterscreens check selectivity or assay interference.

The next assay addresses T2, Human FXIIa (Homo sapiens, UniProt P00748).
T2 construct: active coagulation factor XII (FXIIa); purchased Enzyme Research Labs
T2 sequence (P00748 373-615 limits assumed): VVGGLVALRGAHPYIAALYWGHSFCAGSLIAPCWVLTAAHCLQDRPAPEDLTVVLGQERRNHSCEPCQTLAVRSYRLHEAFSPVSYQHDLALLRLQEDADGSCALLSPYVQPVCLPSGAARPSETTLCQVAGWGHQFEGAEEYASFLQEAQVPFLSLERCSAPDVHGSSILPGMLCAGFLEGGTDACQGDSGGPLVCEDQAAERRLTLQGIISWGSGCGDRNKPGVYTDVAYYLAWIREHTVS
T2 sequence (P00748 20-372 partner limits assumed): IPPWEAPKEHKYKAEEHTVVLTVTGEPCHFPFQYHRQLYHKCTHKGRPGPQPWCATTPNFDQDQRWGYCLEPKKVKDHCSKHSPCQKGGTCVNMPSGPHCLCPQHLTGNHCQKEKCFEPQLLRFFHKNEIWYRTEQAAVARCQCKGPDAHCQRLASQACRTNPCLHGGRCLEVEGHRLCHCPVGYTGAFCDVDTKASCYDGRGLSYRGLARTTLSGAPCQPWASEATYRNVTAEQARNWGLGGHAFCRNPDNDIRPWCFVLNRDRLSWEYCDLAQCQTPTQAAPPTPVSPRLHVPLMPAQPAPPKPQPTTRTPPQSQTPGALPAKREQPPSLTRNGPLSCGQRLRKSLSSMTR
In words: Factor XIIa (FXIIa) inhibitory activity, chromogenic substrate assay. The format is biochemical. The conditions noted are these: Human FXIIa 12.5 nM, Pefachrome XIIa 400 μM, 10 min preincubation. Summed up: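 Buffer was 0.5× HBSS with 25 mM HEPES pH 7.4 and 0.5× TBS-Tween 0.05%. Enzyme and compound (about 1–100 μM) were preincubated 10 min at room temperature, then Pefachrome XIIa was added at 400 μM final. Substrate cleavage was followed as the rate of A405 change at 37 °C.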

For the compound `Cc1cc2c(C(=O)n3nc(N)c4c3CCC(F)(F)C4)cccc2[nH]1` [Example 122, (3-amino-5,5-difluoro-4,5,6,7-tetrahydro-2H-indazol-1-yl)(2-methyl-1H-indol-4-yl)methanone], the half-inhibitory concentration (IC50) against Human alpha-thrombin turned out to be 25 µM; on Human FXIIa it was 0.7 µM.
`Nc1nn(C(=O)c2ccnc3cc(Cl)ccc23)c2c1CCCC2` [Example 124, (3-amino-4,5,6,7-tetrahydro-2H-indazol-1-yl)(7-chloroquinolin-4-yl)methanone]: the IC50 against Human alpha-thrombin and against Human FXIIa was 60 µM in each case.
For the compound `CCc1ccccc1C(=O)n1nc(N)c2c1CCCC2` [Example 152], the concentration for half-maximal inhibition (IC50) against Human alpha-thrombin is > 100 µM; on Human FXIIa, 25 µM.
Take `Cc1[nH]c2ccccc2c1C(=O)n1nc(N)c2c1CCCC2` [Example 154]: the IC50 was > 50 µM against Human alpha-thrombin and 17 µM on Human FXIIa.
Consider `Nc1nn(C(=O)c2cccc3[nH]ncc23)c2c1CCCC2` [Example 157], for which the IC50 was > 100 µM against Human alpha-thrombin and 30 µM at Human FXIIa.
In the case of `Cc1cc2c(C(=O)n3nc4c(c3N)CC(O)CC4)cccc2[nH]1` (stereo not drawn) [Example 161], the IC50 is > 100 µM at Human alpha-thrombin and 0.06 µM against Human FXIIa.
